According to patent US12404285B2, “KRAS G12D proteolysis targeting chimeras” (PAQ Therapeutics Inc., priority 2022, dated 2025):

What follows are compounds tested against T1, KRAS (G12D)-HiBit in AsPc-1-KRAS (G12D)-HiBit-KI cell (Homo sapiens, UniProt P01116, G12D) (assay: G12D HiBit assay). Settings: 24 hours compound treatment, absolute DC50, read-out: Average PHA DC50.
T1 construct: host or cells: AsPc-1-KRAS (G12D)-HiBit-KI cells (knock-in line)
Type: cell-based
Procedure, shortened: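 AsPc-1 cells with HiBiT knocked into KRAS G12D, seeded at 5×10^3/well and held overnight, then treated 24 h with 10-point 3-fold dilutions (300 nM to 0.015 nM). Lytic Nano-Glo HiBiT luminescence expressed as % of 0.1% DMSO control; absolute DC50 from curve fit.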

T1 sequence (P01116 1-188 isoform P01116-2 G12D): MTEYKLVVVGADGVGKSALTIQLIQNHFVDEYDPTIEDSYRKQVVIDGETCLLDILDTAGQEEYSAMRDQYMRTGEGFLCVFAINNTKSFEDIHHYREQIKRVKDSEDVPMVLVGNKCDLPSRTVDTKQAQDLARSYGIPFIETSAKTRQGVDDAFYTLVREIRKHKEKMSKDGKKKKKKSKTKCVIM

DC50, ≥ 300 nM:
C#Cc1c(F)ccc2cccc(-c3ncc4c(N5CC6CCC(C5)N6)nc(OC[C@@]56CCCN5[C@H](COC(=O)NCCCC(=O)N5CCN(c7ccc(N8CCC(=O)NC8=O)cc7)CC5)CC6)nc4c3F)c12 [Compound 146, [(3S,8S)-8-[[4-(3,8-diazabicyclo[3.2.1]octan-3-yl)-7-(8-ethynyl-7-fluoro-1-naphthyl)-8-fluoro-pyrido[4,3-d]pyrimidin-2-yl]oxymethyl]-1,2,3,5,6,7-hexahydropyrrolizin-3-yl]methylN-[4-[4-[4-(2,4-dioxohexahydropyrimidin-1-yl)phenyl]piperazin-1-yl]-4-oxo-butyl]carbamate]
C#Cc1c(F)ccc2cccc(-c3ncc4c(N5CC6CCC(C5)N6)nc(OC[C@@]56CCCN5[C@H](COC(=O)NCCCCC(=O)N5CCN(c7ccc(N8CCC(=O)NC8=O)cc7)CC5)CC6)nc4c3F)c12 [Compound 147, [(3S,8S)-8-[[4-(3,8-Diazabicyclo[3.2.1]octan-3-yl)-7-(8-ethynyl-7-fluoro-1-naphthyl)-8-fluoro-pyrido[4,3-d]pyrimidin-2-yl]oxymethyl]-1,2,3,5,6,7-hexahydropyrrolizin-3-yl]methyl N-[5-[4-[4-(2,4-dioxohexahydropyrimidin-1-yl)phenyl]piperazin-1-yl]-5-oxo-pentyl]carbamate]
C#Cc1c(F)ccc2cccc(-c3ncc4c(N5CC6CCC(C5)N6)nc(OC[C@@]56CCCN5[C@H](COC(=O)NCCCCCC(=O)N5CCN(c7ccc(N8CCC(=O)NC8=O)cc7)CC5)CC6)nc4c3F)c12 [Compound 148, ((3S,7aS)-7a-(((4-(3,8-Diazabicyclo[3.2.1]octan-3-yl)-7-(8-ethynyl-7-fluoronaphthalen-1-yl)-8-fluoropyrido[4,3-d]pyrimidin-2-yl)oxy)methyl)hexahydro-1H-pyrrolizin-3-yl)methyl(6-(4-(4-(2,4-dioxotetrahydropyrimidin-1(2H)-yl)phenyl)piperazin-1-yl)-6-oxohexyl)carbamate]
C#Cc1c(F)ccc2cccc(-c3ncc4c(N5CC6CCC(C5)N6)nc(OC[C@@]56CCCN5[C@H](COC(=O)NCCCCCCC(=O)N5CCN(c7ccc(N8CCC(=O)NC8=O)cc7)CC5)CC6)nc4c3F)c12 [Compound 149, [(3S,8S)-8-[[4-(3,8-Diazabicyclo[3.2.1]octan-3-yl)-7-(8-ethynyl-7-fluoro-1-naphthyl)-8-fluoro-pyrido[4,3-d]pyrimidin-2-yl]oxymethyl]-1,2,3,5,6,7-hexahydropyrrolizin-3-yl]methyl N-[7-[4-[4-(2,4-dioxohexahydropyrimidin-1-yl)phenyl]piperazin-1-yl]-7-oxo-heptyl]carbamate]
